Where two headings read alike, the source gives them in different places.

The source of these data is article PMC11864979, “First-in-class ultralong-target-residence-time p38α inhibitors as a mitosis-targeted therapy for colorectal cancer” (Nature Cancer, 2025).

Common to all, as to test: selectivity profiling in a panel of 340 wild-type kinases (Reaction Biology Europe)
Holding throughout (assay type): binding

Test [1] concerns the target T1, 340 wild-type kinases (Homo sapiens, UniProt Q15139).
T1 construct: purchased Reaction Biology Europe
T1 sequence (Q15139 1-912): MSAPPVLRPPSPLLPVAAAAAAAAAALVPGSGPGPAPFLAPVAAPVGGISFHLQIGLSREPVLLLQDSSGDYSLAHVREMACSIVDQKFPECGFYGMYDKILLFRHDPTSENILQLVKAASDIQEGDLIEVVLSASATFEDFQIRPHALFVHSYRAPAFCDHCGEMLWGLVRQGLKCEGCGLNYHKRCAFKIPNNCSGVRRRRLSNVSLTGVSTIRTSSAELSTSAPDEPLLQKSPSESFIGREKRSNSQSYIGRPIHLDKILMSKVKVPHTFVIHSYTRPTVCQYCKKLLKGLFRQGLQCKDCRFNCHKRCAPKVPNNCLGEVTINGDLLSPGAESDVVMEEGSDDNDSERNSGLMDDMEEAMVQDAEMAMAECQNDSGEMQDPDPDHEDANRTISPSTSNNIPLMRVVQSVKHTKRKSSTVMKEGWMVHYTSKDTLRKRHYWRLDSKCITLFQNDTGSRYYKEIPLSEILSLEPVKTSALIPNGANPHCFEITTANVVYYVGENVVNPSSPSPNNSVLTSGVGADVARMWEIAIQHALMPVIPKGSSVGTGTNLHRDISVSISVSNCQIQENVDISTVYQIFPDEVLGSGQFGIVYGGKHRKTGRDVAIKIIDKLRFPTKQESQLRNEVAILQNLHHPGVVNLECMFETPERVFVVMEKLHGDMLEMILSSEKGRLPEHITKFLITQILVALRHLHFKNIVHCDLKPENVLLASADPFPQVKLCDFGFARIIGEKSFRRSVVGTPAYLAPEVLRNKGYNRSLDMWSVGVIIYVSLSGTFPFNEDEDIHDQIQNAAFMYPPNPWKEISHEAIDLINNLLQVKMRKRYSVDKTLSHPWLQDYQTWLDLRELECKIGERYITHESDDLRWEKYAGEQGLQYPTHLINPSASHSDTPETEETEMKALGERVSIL

Test [2] concerns the target T2, 340 wild-type kinases (Homo sapiens, UniProt Q8TDX7).
T2 construct: purchased Reaction Biology Europe

Test [3] addresses T3, 340 wild-type kinases (Homo sapiens, UniProt O75676).
T3 construct: purchased Reaction Biology Europe

The target in test [4] is T4, 340 wild-type kinases (Homo sapiens, UniProt O15530).
T4 construct: purchased Reaction Biology Europe
T4 sequence (O15530 1-556): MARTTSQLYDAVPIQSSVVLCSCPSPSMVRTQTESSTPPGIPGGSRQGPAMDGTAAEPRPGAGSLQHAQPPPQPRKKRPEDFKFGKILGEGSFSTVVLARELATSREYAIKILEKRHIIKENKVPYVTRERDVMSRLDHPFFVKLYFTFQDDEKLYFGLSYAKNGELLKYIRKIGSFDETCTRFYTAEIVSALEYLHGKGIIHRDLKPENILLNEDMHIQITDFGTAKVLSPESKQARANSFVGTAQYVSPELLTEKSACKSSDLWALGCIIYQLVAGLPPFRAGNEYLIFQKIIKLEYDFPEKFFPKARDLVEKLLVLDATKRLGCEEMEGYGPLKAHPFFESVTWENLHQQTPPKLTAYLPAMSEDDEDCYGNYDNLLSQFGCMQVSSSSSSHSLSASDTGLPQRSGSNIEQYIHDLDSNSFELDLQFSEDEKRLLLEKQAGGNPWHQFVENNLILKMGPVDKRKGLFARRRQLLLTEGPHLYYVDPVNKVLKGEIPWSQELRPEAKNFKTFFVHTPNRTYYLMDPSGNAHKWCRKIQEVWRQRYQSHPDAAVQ

In test [5] the target is T5, 340 wild-type kinases (Homo sapiens, UniProt P54756).
T5 construct: purchased Reaction Biology Europe

Test [6] addresses T6, 340 wild-type kinases (Homo sapiens, UniProt Q9Y6E0).
T6 construct: purchased Reaction Biology Europe

T2 sequence (Q8TDX7 whole entry): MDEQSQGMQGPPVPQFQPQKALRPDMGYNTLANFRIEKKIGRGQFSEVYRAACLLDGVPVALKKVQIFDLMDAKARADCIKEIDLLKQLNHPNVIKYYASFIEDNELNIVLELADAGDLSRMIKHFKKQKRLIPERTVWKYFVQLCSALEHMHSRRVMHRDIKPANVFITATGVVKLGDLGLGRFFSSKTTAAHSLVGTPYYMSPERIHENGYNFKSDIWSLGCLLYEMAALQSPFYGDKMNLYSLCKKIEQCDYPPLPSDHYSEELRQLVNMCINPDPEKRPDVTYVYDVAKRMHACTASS
T6 sequence (Q9Y6E0 whole entry): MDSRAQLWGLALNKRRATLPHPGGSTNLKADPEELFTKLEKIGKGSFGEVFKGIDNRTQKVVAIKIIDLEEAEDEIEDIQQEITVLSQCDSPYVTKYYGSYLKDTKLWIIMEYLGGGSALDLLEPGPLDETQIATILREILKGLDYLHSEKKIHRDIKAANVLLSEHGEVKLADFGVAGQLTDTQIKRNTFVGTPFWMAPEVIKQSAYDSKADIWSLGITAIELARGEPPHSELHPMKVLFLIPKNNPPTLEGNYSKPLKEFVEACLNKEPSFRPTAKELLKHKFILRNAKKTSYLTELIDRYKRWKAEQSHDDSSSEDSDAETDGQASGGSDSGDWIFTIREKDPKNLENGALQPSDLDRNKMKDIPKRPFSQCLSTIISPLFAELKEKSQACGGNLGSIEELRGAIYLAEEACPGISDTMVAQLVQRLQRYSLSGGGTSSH
T3 sequence (O75676 whole entry): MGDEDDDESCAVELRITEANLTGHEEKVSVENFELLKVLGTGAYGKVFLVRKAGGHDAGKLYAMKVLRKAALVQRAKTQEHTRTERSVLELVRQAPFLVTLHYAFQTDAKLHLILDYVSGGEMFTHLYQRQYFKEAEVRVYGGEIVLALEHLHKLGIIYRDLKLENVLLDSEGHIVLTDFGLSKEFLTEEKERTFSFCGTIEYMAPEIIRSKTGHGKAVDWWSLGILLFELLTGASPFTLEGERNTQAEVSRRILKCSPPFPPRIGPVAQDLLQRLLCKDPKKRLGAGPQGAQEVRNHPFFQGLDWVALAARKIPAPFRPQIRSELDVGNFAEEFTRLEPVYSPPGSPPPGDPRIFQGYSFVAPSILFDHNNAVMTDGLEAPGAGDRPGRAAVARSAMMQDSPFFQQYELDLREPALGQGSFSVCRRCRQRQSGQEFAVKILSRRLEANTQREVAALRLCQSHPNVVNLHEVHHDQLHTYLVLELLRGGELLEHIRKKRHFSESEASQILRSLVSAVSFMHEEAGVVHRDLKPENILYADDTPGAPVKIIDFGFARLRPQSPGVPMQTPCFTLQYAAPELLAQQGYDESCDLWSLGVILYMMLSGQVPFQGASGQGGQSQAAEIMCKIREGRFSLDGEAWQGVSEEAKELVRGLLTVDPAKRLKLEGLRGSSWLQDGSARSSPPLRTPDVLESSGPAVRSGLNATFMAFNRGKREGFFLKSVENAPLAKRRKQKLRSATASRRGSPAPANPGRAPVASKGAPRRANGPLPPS
T5 sequence (P54756 25-1037): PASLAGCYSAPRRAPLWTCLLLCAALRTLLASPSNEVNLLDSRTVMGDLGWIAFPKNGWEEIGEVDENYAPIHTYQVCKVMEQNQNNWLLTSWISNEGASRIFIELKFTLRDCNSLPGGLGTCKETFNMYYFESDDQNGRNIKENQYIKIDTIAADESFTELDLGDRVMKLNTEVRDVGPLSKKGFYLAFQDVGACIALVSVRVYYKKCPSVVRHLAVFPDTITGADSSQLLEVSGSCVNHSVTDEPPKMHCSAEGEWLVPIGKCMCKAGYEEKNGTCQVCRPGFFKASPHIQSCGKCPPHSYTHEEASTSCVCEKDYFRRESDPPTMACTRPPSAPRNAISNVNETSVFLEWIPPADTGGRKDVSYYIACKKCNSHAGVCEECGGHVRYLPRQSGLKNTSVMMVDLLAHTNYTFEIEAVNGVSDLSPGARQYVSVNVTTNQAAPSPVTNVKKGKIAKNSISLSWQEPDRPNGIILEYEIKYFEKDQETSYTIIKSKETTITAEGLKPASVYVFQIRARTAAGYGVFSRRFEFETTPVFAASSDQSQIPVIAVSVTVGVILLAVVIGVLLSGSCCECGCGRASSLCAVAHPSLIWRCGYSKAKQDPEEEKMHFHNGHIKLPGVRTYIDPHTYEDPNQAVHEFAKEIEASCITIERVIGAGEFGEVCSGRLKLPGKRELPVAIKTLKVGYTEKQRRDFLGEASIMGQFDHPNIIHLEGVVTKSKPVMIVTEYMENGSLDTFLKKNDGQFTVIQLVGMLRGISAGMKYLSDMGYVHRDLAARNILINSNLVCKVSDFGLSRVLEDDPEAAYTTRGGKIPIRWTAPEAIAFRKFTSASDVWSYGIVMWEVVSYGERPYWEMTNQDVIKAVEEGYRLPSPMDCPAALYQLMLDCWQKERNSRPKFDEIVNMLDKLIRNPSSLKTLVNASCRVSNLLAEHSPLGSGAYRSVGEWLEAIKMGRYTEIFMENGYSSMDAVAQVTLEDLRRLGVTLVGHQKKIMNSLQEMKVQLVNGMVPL

As for `CNC(=O)c1ccc2c(c1)C(=O)c1ccc(Nc3ccc(F)c(NC(=O)C4CC4)c3)cc1CC2` [Compound 2015], the remaining activity at 0.2 µM is 98.1% on 340 wild-type kinases [1] (0.2 µM 2015, read-out: PKCmu residual activity); 98.1% at 340 wild-type kinases [1] (PKCmu, 0.2 µM, read-out: residual activity); 119% at 340 wild-type kinases [2] (0.2 µM 2015, read-out: NEK7 residual activity); 119% at 340 wild-type kinases [2] (NEK7, 0.2 µM, read-out: residual activity); 95.3% at 340 wild-type kinases [3] (0.2 µM 2015, read-out: RPS6KA4 residual activity); 95.3% at 340 wild-type kinases [3] (RPS6KA4, 0.2 µM, read-out: residual activity). In addition, the remaining activity at 0.2 µM on 340 wild-type kinases [4] (0.2 µM 2015, read-out: PDK1 residual activity) was 107%; on 340 wild-type kinases [4] (PDK1, 0.2 µM, read-out: residual activity), 107%; on 340 wild-type kinases [5] (0.2 µM 2015, read-out: EPHA5 residual activity), 110%; at 340 wild-type kinases [5] (EPHA5, 0.2 µM, read-out: residual activity), 110%; on 340 wild-type kinases [6] (0.2 µM 2015, read-out: MST3 residual activity) it was 119%; at 340 wild-type kinases [6] (MST3, 0.2 µM, read-out: residual activity), 119%. In addition, the remaining activity at 1 µM on 340 wild-type kinases [1] (1 µM 2015, read-out: PKCmu residual activity) worked out at 95.1%; on 340 wild-type kinases [1] (PKCmu, 1 µM, read-out: residual activity) it was 95.1%; at 340 wild-type kinases [2] (1 µM 2015, read-out: NEK7 residual activity) it was 110%; on 340 wild-type kinases [3] (1 µM 2015, read-out: RPS6KA4 residual activity), 89.4%; on 340 wild-type kinases [3] (RPS6KA4, 1 µM, read-out: residual activity), 89.4%; at 340 wild-type kinases [4] (1 µM 2015, read-out: PDK1 residual activity) it was 93.7%. For the same molecule, the remaining activity at 1 µM at 340 wild-type kinases [4] (PDK1, 1 µM, read-out: residual activity) was 93.7%; at 340 wild-type kinases [5] (1 µM 2015, read-out: EPHA5 residual activity), 98.5%; at 340 wild-type kinases [5] (EPHA5, 1 µM, read-out: residual activity) it was 98.5%; at 340 wild-type kinases [6] (1 µM 2015, read-out: MST3 residual activity), 117%; at 340 wild-type kinases [6] (MST3, 1 µM, read-out: residual activity), 117%.
